This is an account of results in patent publication US8569302B2, “Inhibitors of flaviviridae viruses” (Gilead Sciences, Inc., priority 2009, dated 2013).

The test system of one test is human hepatoma Huh-7 cell line harboring a HCV replicon. The test can be described thus: HCV replicon assay (inhibition of viral replication, luciferase readout). The test is classed as cell-based. As to conditions: Hepatitis C virus, 72 h, Huh-7 HCV replicon cells, 3 days incubation. The essentials: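 Huh-7 replicon cells were exposed to 10-point 3-fold compound dilutions (0.44% DMSO) for 3 days at 37 °C. Replicon replication was read by Dual-Glo luciferase, with background from protease-inhibitor wells subtracted, and viability by calcein AM. EC50/CC50 came from a Hill-equation fit versus DMSO controls.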
`CC(C)(C)C#Cc1cc(N(C(=O)[C@H]2CC[C@H](C)CC2)[C@H]2CC[C@H](Oc3cc[nH]c(=O)n3)CC2)c(C(=O)O)s1` [Compound 147, 5-(3,3-Dimethyl-but-1-ynyl)-3-{(trans-4-methyl-cyclohexanecarbonyl)-[trans-4-(2-oxo-1,2-dihydro-pyrimidin-4-yloxy)-cyclohexyl]-amino}-thiophene-2-carboxylic acid] had an inhibition at 2 µM of 99.9%.

The compound `CC1CCC(C(=O)N(c2cc(C#CC(C)(C)C)sc2C(=O)O)C2CCC(Oc3cccc(CN4CCCC4)n3)CC2)CC1` (stereo not shown) [Compound 187, 3-[[-4-(6-pyrrolidin-1-ylmethyl-pyridin-2-yloxy)-cyclohexyl]-(4-methyl-cyclohexanecarbonyl)-amino]-5-(3,3-Dimethyl-but-1-ynyl)-thiophene-2-carboxylic acid] had an inhibition at 2 µM of 100%.

`CC1CCC(C(=O)N(c2cc(C#CC(C)(C)C)sc2C(=O)O)[C@H]2CC[C@H](Oc3cccc(CN4CCOCC4)n3)CC2)CC1` (stereo partly shown) [Compound 188, 3-[[-4-(6-morpholin-1-ylmethyl-pyridin-2-yloxy)-cyclohexyl]-(4-methyl-cyclohexanecarbonyl)-amino]-5-(3,3-Dimethyl-but-1-ynyl)-thiophene-2-carboxylic acid] came in with an inhibition at 2 µM of 100%.

`Cn1cnc(S(=O)(=O)N2CCC(N(c3cc(C#CC(C)(C)C)sc3C(=O)O)C(=O)[C@H]3CC[C@H](C)CC3)CC2)c1` [Compound 201, 5-(3,3-Dimethyl-but-1-ynyl)-3-{(4-methyl-cyclohexanecarbonyl)-[1-(1-methyl-1′-1-imidazole-4-sulfonyl)-piperidin-4-yl]-amino}-thiophene-2-carboxylic acid] came in with an inhibition at 2 µM of 100%.

Consider `CC(C)(C)C#Cc1cc(N(C(=O)[C@H]2CC[C@H](C)CC2)[C@H]2CC[C@H](O[C@@H]3CCOC3)CC2)c(C(=O)O)s1` [Compound 322], for which the inhibition at 2 µM was found to be 100%.

`CC1CCC(C(=O)N(c2cc(C#CC(C)(C)C)sc2C(=O)O)[C@H]2CC[C@H](Oc3cc(CN4CCCC4=O)ccn3)CC2)CC1` (stereo partly shown) [Compound 189, 3-[[-4-(4-pyrrolidin-2-one-1-ylmethyl-pyridin-2-yloxy)-cyclohexyl]-(4-methyl-cyclohexanecarbonyl)-amino]-5-(3,3-Dimethyl-but-1-ynyl)-thiophene-2-carboxylic acid]: the inhibition at 2 µM came out at 99.9%.

Compound `CC(C)(C)C#Cc1cc(N(C(=O)[C@H]2CC[C@H](C)CC2)[C@H]2CC[C@H](O[C@@H]3CCN(C(=O)OC(C)(C)C)C3)CC2)c(C(=O)O)s1` [Compound 230, 3-(N-(4-((R)-1-(tert-butoxycarbonyl)pyrrolidin-3-yloxy)cyclohexyl)-4-methylcyclohexanecarboxamido)-5-(3,3-dimethylbut-1-ynyl)thiophene-2-carboxylic acid] displayed an inhibition at 2 µM of 98.4%.

In turn, `CC(C)(C)C#Cc1cc(N(C(=O)[C@H]2CC[C@H](C)CC2)[C@H]2CC[C@H](Oc3cc(CN4CCCC4)ccn3)CC2)c(C(=O)O)s1` [Compound 27, 5-(3,3-Dimethyl-but-1-ynyl)-3-{(trans-4-methyl-cyclohexanecarbonyl)-[trans-4-(4-pyrrolidin-1-ylmethyl-pyridin-2-yloxy)-cyclohexyl]-amino}-thiophene-2-carboxylic acid] came in with an inhibition at 2 µM of 100%.

As for `CC(C)(C)C#Cc1cc(N(C(=O)[C@H]2CC[C@H](C)CC2)[C@H]2CC[C@@H](Oc3ccc(Cl)nn3)CC2)c(C(=O)O)s1` [Compound 177, 3-(N-(4-(6-Chloropyridazin-3-yloxy)cyclohexyl)-4-methylcyclohexanecarboxamido)-5-(3,3-dimethylbut-1-ynyl)thiophene-2-carboxylic acid], the inhibition at 2 µM was determined as 99.6%.

Consider `Cc1cccnc1O[C@H]1CC[C@H](N(c2cc(C#CC(C)(C)C)sc2C(=O)O)C(=O)[C@H]2CC[C@H](C)CC2)CC1` [Compound 12, 5-(3,3-Dimethyl-but-1-ynyl)-3-{(trans-4-methyl-cyclohexanecarbonyl)-[trans-4-(3-methyl-pyridin-2-yloxy)-cyclohexyl]-amino}-thiophene-2-carboxylic acid], for which the inhibition at 2 µM worked out at 99.7%.

As to `Cc1ccc(O[C@H]2CC[C@H](N(c3cc(C#CC(C)(C)C)sc3C(=O)O)C(=O)[C@H]3CC[C@H](C)CC3)CC2)nn1` [Compound 3, 5-(3,3-Dimethyl-but-1-ynyl)-3-{(trans-4-methyl-cyclohexanecarbonyl)-[trans-4-(6-methyl-pyridazin-3-yloxy)-cyclohexyl]-amino}-thiophene-2-carboxylic acid], the inhibition at 2 µM is 100%.

`CC(C)(C)C#Cc1cc(N(C(=O)[C@H]2CC[C@H](C)CC2)[C@H]2CC[C@H](Oc3ccncn3)CC2)c(C(=O)O)s1` [Compound 163, 5-(3,3-Dimethylbut-1-ynyl)-3-(4-methyl-N-(4-(pyrimidin-4-yloxy)cyclohexyl)cyclohexanecarboxamido)thiophene-2-carboxylic acid] gave an inhibition at 2 µM of 100%.

The compound `CN(C)Cc1ccnc(O[C@H]2CC[C@H](N(c3cc(C#CC(C)(C)C(F)(F)F)sc3C(=O)O)C(=O)[C@H]3CC[C@H](C)CC3)CC2)c1` [Compound 341, 3-((1r,4R)—N-((1r,4R)-4-(4-((dimethylamino)methyl)pyridin-2-yloxy)cyclohexyl)-4-methylcyclohexanecarboxamido)-5-(4,4,4-trifluoro-3,3-dimethylbut-1-ynyl)thiophene-2-carboxylic acid] showed an inhibition at 2 µM of 100%.

`CC(C)(C)C#Cc1cc(N(C(=O)[C@H]2CC[C@H](C)CC2)[C@H]2CC[C@H](Sc3ccncc3)CC2)c(C(=O)O)s1` [Compound 87, 5-(3,3-Dimethylbut-1-ynyl)-3-(4-methyl-N-(4-(pyridin-4-ylthio)cyclohexyl)cyclohexanecarboxamido)thiophene-2-carboxylic acid] returned an inhibition at 2 µM of 99.5%.

With `CC(C)(C)C#Cc1cc(N(C(=O)[C@H]2CC[C@H](C)CC2)[C@H]2CC[C@H](Oc3cc(C(=O)N4CCC4)ccn3)CC2)c(C(=O)O)s1` [Compound 168, Sodium 3-(N-(4-(4-(azetidine-1-carbonyl)pyridin-2-yloxy)cyclohexyl)-4-methylcyclohexanecarboxamido)-5-(3,3-dimethylbut-1-ynyl)thiophene-2-carboxylate], testing at 2 µM gave an inhibition of 99.9%.

Consider `Cn1nnnc1S(=O)(=O)[C@H]1CC[C@H](N(c2cc(C#CC(C)(C)C)sc2C(=O)O)C(=O)[C@H]2CC[C@H](C)CC2)CC1` [Compound 110, 5-(3,3-Dimethylbut-1-ynyl)-3-(4-methyl-N-(4-(1-methyl-1H-tetrazol-5-ylsulfonyl)cyclohexyl)cyclohexanecarboxamido)thiophene-2-carboxylic acid], for which the inhibition at 2 µM turned out to be 100%.

Compound `CC(C)(C)C#Cc1cc(N(C(=O)[C@H]2CC[C@H](C)CC2)[C@H]2CC[C@H](Oc3cncnc3)CC2)c(C(=O)O)s1` [Compound 162, 5-(3,3-Dimethylbut-1-ynyl)-3-(4-methyl-N-(4-(pyrimidin-5-yloxy)cyclohexyl)cyclohexanecarboxamido)thiophene-2-carboxylic acid] displayed an inhibition at 2 µM of 99.9%.

`Cc1nsc(OC2CCC(N(c3cc(C#CC(C)(C)C)sc3C(=O)O)C(=O)[C@H]3CC[C@H](C)CC3)CC2)n1` (stereo partly shown) [Compound 154, 5-(3,3-Dimethylbut-1-ynyl)-3-(4-methyl-N-(4-(3-methyl-1,2,4-thiadiazol-5-yloxy)cyclohexyl)cyclohexanecarboxamido)thiophene-2-carboxylic acid]: the inhibition at 2 µM was 99.7%.

Compound `CC1=CC[C@@H](C(=O)N(c2cc(C#CC(C)(C)C)sc2C(=O)O)[C@H]2CC[C@H](OC3CCOC3)CC2)CC1` (stereo partly shown) [Compound 334] yielded an inhibition at 2 µM of 99.9%.

`CC(C)(C)C#Cc1cc(N(C(=O)[C@H]2CC[C@H](C)CC2)C2CCN(S(=O)(=O)c3ccsc3)CC2)c(C(=O)O)s1` [Compound 205, 5-(3,3-Dimethyl-but-1-ynyl)-3-{(4-methyl-cyclohexanecarbonyl)-[1-(thiophene-3-sulfonyl)-piperidin-4-yl]-amino}-thiophene-2-carboxylic acid]: the inhibition at 2 µM was 99.9%.

The compound `CC(C)(C)C#Cc1cc(N(C(=O)[C@H]2CC[C@H](C)CC2)[C@H]2CC[C@H](Oc3ccc(CN4CCCC4=O)cn3)CC2)c(C(=O)O)s1` [Compound 170, Sodium 5-(3,3-dimethylbut-1-ynyl)-3-(4-methyl-N-(4-(5-((2-oxopyrrolidin-1-yl)methyl)pyridin-2-yloxy)cyclohexyl)cyclohexanecarboxamido)thiophene-2-carboxylate] yielded an inhibition at 2 µM of 99.9%.

`CC(C)(C)C#Cc1cc(N(C(=O)[C@H]2CC[C@H](C)CC2)[C@H]2CC[C@H](Oc3ncccc3C(F)(F)F)CC2)c(C(=O)O)s1` [Compound 16, 5-(3,3-Dimethyl-but-1-ynyl)-3-{(trans-4-methyl-cyclohexanecarbonyl)-[trans-4-(3-trifluoromethyl-pyridin-2-yloxy)-cyclohexyl]-amino}-thiophene-2-carboxylic acid]: at 2 µM the inhibition was 75.1%.

Turning to `Cn1nc(O[C@H]2CC[C@@H](N(c3cc(C#CC(C)(C)C)sc3C(=O)O)C(=O)[C@H]3CC[C@H](C)CC3)CC2)ccc1=O` [Compound 173, Sodium 5-(3,3-dimethylbut-1-ynyl)-3-(4-methyl-N-(4-(1-methyl-6-oxo-1,6-dihydropyridazin-3-yloxy)cyclohexyl)cyclohexanecarboxamido)thiophene-2-carboxylate], the inhibition at 2 µM amounted to 100%.

Staying with this test, now noted: Huh-7 HCV replicon cells, 3 days incubation.
Turning to “5-(3,3-Dimethyl-but-1-ynyl)-3-{(trans-4-methyl-cyclohexanecarbonyl)-[trans-4-(1-oxy-pyridin-3-yloxy)-cyclohexyl]-amino}-thiophene-2-carboxylic acid [Compound 24]”, the “% inhibition at 2μM” value is 99.9%.

As to `CC1=CCC(C(=O)N(c2cc(C#CC(C)(C)C)sc2C(=O)O)[C@H]2CC[C@H](O[C@@H]3CCOC3)CC2)[C@@H](C)C1` (single isomer, unassigned) [Compound 308, 5-(3,3-Dimethyl-but-1-ynyl)-3-{(4,6S-dimethyl-cyclohex-3-enecarbonyl)-[4-(tetrahydro-furan-3R-yloxy)-trans-cyclohexyl]-amino}-thiophene-2-carboxylic acid], the “% inhibition at 2μM” value was determined as 99.99%.
